Literature values as cited in US20260248829A1, “PHOSPHOLIPID COMPOSITIONS COMPRISING EPA AND/OR DHA FOR AMELIORATING NEURODEGENERATION AND AGE-RELATED NEURODEGENERATIVE DISORDERS” (Aker BioMarine Human Ingredients AS, priority 2022, published 2026).

Test system: dopaminergic neurons in the nigro-striatal circuit
Conditions: young mice

In the case of `CC1=C(/C=C/C(C)=C/C=C/C(C)=C/C=C/C=C(C)/C=C/C=C(C)/C=C/C2=C(C)C(=O)[C@@H](O)CC2(C)C)C(C)(C)C[C@H](O)C1=O` [astaxanthin], the “protection of dopaminergic neurons” value is given as “protects”.
